Experimental findings from patent publication US11932606B2, “Anti-cancer/anti-fibrosis compounds” (THE REGENTS OF THE UNIVERSITY OF CALIFORNIA, priority 2017, dated 2024) are described below.

Like-named read-outs stand apart in the source and are kept apart here.

For one assay, the target named is HIPK2 (Homo sapiens (Human), UniProt Q9H2X6). Kind of assay: HIPK2 enzymatic activity inhibition (Z'-LYTE). In kind it is biochemical. Here is the method:
HIPK2 Enzymatic Activity Inhibition: Determination of IC50 Values for Selected Compounds
The half maximal inhibitory concentration (IC50) with respect to HIPK2 inhibition was determined for the compounds of the invention by using Z′-LYTE™ from ThermoFisher Scientific's SelectScreen™ Biochemical Kinase Profiling Service (Waltham, MA). Compounds were screened in 1% DMSO (final) in the well. For 10 point titrations, 3-fold serial dilutions were conducted from the starting concentration. The 2×HIPK2/Ser/Thr 09 mixture was prepared in 50 mM HEPES pH 7.5, 0.01% BRIJ-35, 10 mM MgCl2, 1 mM EGTA.
100 nL of 100× test compound in 100% DMSO, 2.4 uL of kinase buffer (50 mM HEPES pH 7.5, 0.01% BRIJ-35, 10 mM MgCl2, 1 mM EGTA), 5 uL of 2×HIPK2/Ser/Thr 09 mixture, and 2.5 uL of 4×ATP solution were mixed and agitated for 30 seconds. Then the Kinase Reaction was incubated at room temperature for 60 minutes. […] After 30 second of plate shake, the reaction plate was incubated for another 60 min at room temperature. Then the plate was read on a fluorescence plate reader (CLARIOstar, BMG Labtech, Germany) as plate reader and data was analyzed using XLfit from IDBS.

The target of another assay is CSNK2A1 (CK2 alpha 1) (Homo sapiens (Human), UniProt P68400). Kind of assay: CK2 alpha 1 enzymatic activity inhibition (Z'-LYTE). In kind it is biochemical. The conditions noted are these: read-out: CK2a IC50. The procedure:
CK2 Alpha 1 Enzymatic Activity Inhibition: Determination of IC50 Values for Selected Compounds
The half maximal inhibitory concentration (IC50) with respect to CK2 alpha 1 inhibition was determined for the compounds of the invention by using Z′-LYTE™ from ThermoFisher Scientific's SelectScreen™ Biochemical Kinase Profiling Service (Waltham, MA). Compounds were screened in 1% DMSO (final) in the well. For 10 point titrations, 3-fold serial dilutions were conducted from the starting concentration. The 2×CSNK2A1 (CK2 alpha 1)/Ser/Thr 11 mixture is prepared in 50 mM HEPES pH 7.5, 0.01% BRIJ-35, 10 mM MgCl2, 1 mM EGTA. The black 384-well plate (Corning Cat. #4514) were used for the assay. 100 nL of 100× test compound in 100% DMSO, 2.4 uL of kinase buffer (50 mM HEPES pH 7.5, 0.01% BRIJ-35, 10 mM MgCl2, 1 mM EGTA), 5 uL of 2×CSNK2A1 (CK2 alpha 1)/Ser/Thr 11 mixture, and 2.5 uL of 4×ATP solution were mixed and agitated for 30 seconds. Then the Kinase Reaction was incubated at room temperature for 60 minutes. The final 10 uL Kinase Reaction consisted of 0.68-25.7 ng CSNK2A1 (CK2 alpha 1) and 2 μM Ser/Thr 11 in 50 mM HEPES pH 7.5, 0.01% BRIJ-35, 10 mM MgCl2, 1 mM EGTA. After the 1 hour Kinase Reaction incubation, 5 uL of a 1:16 dilution of Development Reagent B is added. After 30 second of plate shake, the reaction plate was incubated for another 60 min at room temperature. Then the plate was read on a fluorescence plate reader (CLARIOstar, BMG Labtech, Germany) and data was analyzed using XLfit from IDBS. The dose response curve was curve fit to model number 205 (sigmoidal dose-response model).

Sequence of HIPK2 (Q9H2X6 whole entry): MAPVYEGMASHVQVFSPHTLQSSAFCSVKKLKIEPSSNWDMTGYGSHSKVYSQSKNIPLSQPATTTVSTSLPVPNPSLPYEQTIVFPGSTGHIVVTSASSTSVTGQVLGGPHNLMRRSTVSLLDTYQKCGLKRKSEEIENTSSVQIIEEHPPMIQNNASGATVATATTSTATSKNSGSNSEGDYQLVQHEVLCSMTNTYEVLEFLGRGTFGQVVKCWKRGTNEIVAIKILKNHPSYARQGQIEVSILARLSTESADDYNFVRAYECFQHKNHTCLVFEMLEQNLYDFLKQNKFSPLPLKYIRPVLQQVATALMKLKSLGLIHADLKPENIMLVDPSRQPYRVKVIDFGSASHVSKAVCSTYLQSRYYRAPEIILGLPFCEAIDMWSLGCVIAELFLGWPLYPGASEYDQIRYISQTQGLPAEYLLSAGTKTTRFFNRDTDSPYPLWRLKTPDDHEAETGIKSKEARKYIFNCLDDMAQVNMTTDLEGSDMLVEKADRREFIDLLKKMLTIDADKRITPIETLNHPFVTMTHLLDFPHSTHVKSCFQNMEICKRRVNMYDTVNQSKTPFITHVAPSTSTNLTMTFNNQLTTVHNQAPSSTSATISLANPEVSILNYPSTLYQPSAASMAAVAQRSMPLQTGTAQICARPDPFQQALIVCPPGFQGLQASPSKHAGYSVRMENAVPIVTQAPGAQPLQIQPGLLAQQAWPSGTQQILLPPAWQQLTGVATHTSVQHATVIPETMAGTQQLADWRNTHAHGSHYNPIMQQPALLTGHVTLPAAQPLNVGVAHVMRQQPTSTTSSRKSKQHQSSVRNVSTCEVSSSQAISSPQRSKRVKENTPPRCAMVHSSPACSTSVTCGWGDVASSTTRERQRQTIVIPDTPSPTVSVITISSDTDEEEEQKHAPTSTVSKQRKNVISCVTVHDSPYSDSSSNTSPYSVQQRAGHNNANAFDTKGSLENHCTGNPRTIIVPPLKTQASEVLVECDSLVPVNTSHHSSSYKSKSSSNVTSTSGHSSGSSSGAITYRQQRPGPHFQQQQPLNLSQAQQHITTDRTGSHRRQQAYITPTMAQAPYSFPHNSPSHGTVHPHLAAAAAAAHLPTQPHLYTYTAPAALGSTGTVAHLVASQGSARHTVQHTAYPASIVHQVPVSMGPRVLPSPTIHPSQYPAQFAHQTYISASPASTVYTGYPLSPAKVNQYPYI
Sequence of CSNK2A1 (CK2 alpha 1) (P68400 whole entry): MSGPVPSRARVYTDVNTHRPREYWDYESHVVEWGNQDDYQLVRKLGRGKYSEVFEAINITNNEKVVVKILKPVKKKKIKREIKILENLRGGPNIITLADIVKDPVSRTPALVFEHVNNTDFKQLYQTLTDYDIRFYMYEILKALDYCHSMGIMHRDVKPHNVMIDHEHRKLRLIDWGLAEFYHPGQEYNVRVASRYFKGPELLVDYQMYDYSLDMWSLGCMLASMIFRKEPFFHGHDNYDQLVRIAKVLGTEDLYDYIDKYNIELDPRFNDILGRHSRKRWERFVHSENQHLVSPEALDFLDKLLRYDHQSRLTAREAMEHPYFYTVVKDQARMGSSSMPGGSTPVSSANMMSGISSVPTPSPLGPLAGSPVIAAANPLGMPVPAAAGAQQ

Regarding `O=C(O)c1ccc2c(c1)cc(Br)c1cc(Cl)ncc12` [Compound 24, Sodium 5-bromo-3-chlorobenzo[h]isoquinoline-8-carboxylate], the IC50 at HIPK2 (read-out: HIPK2 IC50) is > 5000 nM; at CSNK2A1 (CK2 alpha 1) it was 1000 to 5000 nM.

For `O=C(O)c1ccc2c(c1)cc(N1CCCCC1)c1ccncc12` [Compound 20, Sodium 5-(piperidin-1-yl)benzo[h]isoquinoline-8-carboxylate], the figures for the IC50 against HIPK2 and at CSNK2A1 (CK2 alpha 1) were 300 to 1000 nM and < 300 nM, respectively.

In the case of `O=C(O)c1ccc2c(c1)cc(-c1cc[nH]n1)c1ccncc12` [Compound 11, Sodium 5-(1H-pyrazol-3-yl)benzo[h]isoquinoline-8-carboxylate], the half-maximal inhibitory concentration (IC50) at HIPK2 was 1000 to 5000 nM; at CSNK2A1 (CK2 alpha 1) it was < 300 nM.

Regarding `O=C(O)c1ccc2c(c1)cc(C1CC1)c1ccncc12` [Compound 28, Sodium 5-cyclopropylbenzo[h]isoquinoline-8-carboxylate], the figures for the 50% inhibitory concentration (IC50) against HIPK2 and on CSNK2A1 (CK2 alpha 1) were 300 to 1000 nM and < 300 nM, respectively.

Turning to `CC(C)Nc1cc2cc(C(=O)O)ccc2c2cnccc12` [Compound 21, Sodium 5-(isopropylamino)benzo[h]isoquinoline-8-carboxylate], the values for the IC50 against HIPK2 and at CSNK2A1 (CK2 alpha 1) were 300 to 1000 nM and < 300 nM, respectively.

Turning to `O=C(O)c1ccc2c(ccc3ccnc(Cl)c32)c1` [Compound 25, Sodium 1-chlorobenzo[h]isoquinoline-8-carboxylate], the values for the IC50 at HIPK2 and at CSNK2A1 (CK2 alpha 1) were 1000 to 5000 nM and < 300 nM, respectively.

Turning to `CC(C)CNc1cc2cc(C(=O)O)ccc2c2cnccc12` [Compound 16], the IC50 at CSNK2A1 (CK2 alpha 1) was < 300 nM.

Regarding `O=C(O)c1ccc2c(c1)cc(Br)c1ccnc(NC3CC3)c12` [Compound 31, Sodium 5-bromo-1-(cyclopropylamino)benzo[h]isoquinoline-8-carboxylate], the IC50 at HIPK2 and on CSNK2A1 (CK2 alpha 1) was 1000 to 5000 nM in each case.

As to `Nc1ccc(-c2cc3cc(C(=O)O)ccc3c3cnccc23)cn1` [Compound 10, Sodium 5-(6-aminopyridin-3-yl)benzo[h]isoquinoline-8-carboxylate], the IC50 on HIPK2 is 300 to 1000 nM; on CSNK2A1 (CK2 alpha 1), < 300 nM.

With `N[C@@H]1CCCN(c2cc3cc(C(=O)O)ccc3c3cnccc23)C1` [Compound 14, (R)-5-(3-Aminopiperidin-1-yl)benzo[h]isoquinoline-8-carboxylic acid], the half-inhibitory concentration (IC50) is > 5000 nM at HIPK2 (read-out: HIPK2 IC50) and < 300 nM on CSNK2A1 (CK2 alpha 1).

On to `O=C(O)c1ccc2c(c1)cc(Nc1ccc(Cl)cc1)c1ccncc12` [Compound 5, Sodium 5-((4-chlorophenyl)amino)benzo[h]isoquinoline-8-carboxylate], for which the IC50 at HIPK2 is 300 to 1000 nM; at CSNK2A1 (CK2 alpha 1), < 300 nM.

For `O=C(O)c1ccc2c(c1)cc(Cl)c1ccncc12` [Compound 3, Sodium 5-chlorobenzo[h]isoquinoline-8-carboxylate], the figures for the IC50 at HIPK2 and on CSNK2A1 (CK2 alpha 1) were 300 to 1000 nM and < 300 nM, respectively.

`NC(=O)c1ccc2c(c1)cc(Br)c1ccnc(N)c12` [Compound 33, 1-Amino-5-bromobenzo[h]isoquinoline-8-carboxamide]: the IC50 fell in the range of 300 to 1000 nM on HIPK2 and 1000 to 5000 nM on CSNK2A1 (CK2 alpha 1).

For the molecule `CC[C@H](C)Nc1cc2cc(C(=O)O)ccc2c2cnccc12` [Compound 19, (S)-5-(sec-Butylamino)benzo[h]isoquinoline-8-carboxylic acid], the IC50 at HIPK2 is 1000 to 5000 nM; on CSNK2A1 (CK2 alpha 1), < 300 nM.

For the molecule `CN(C)c1nccc2c(Br)cc3cc(C(=O)O)ccc3c12` [Compound 30, Sodium 5-bromo-1-(dimethylamino)benzo[h]isoquinoline-8-carboxylate], the IC50 against HIPK2 and on CSNK2A1 (CK2 alpha 1) was 1000 to 5000 nM in each case.

`O=C(O)c1ccc2c(c1)cc(NC1CCC1)c1ccncc12` [Compound 18, Sodium 5-(cyclobutylamino)benzo[h]isoquinoline-8-carboxylate]: the IC50 against HIPK2 was 300 to 1000 nM; on CSNK2A1 (CK2 alpha 1), < 300 nM.

As to `O=C(O)c1ccc2c(c1)cc(NC1CCCCC1)c1ccncc12` [Compound 12, Sodium 5-(cyclohexylamino)benzo[h]isoquinoline-8-carboxylate], the IC50 against HIPK2 was 300 to 1000 nM; on CSNK2A1 (CK2 alpha 1), < 300 nM.

Consider `O=C(O)c1ccc2c(c1)cc(-c1cccnc1)c1ccncc12` [Compound 7, Sodium 5-(pyridin-3-yl)benzo[h]isoquinoline-8-carboxylate], for which the half-maximal inhibitory concentration (IC50) was 1000 to 5000 nM on HIPK2 and < 300 nM on CSNK2A1 (CK2 alpha 1).

For `O=C(O)c1ccc2c(c1)cc(-c1ccncc1)c1ccncc12` [Compound 8, Sodium 5-(pyridin-4-yl)benzo[h]isoquinoline-8-carboxylate], the IC50 was 1000 to 5000 nM at HIPK2 and < 300 nM at CSNK2A1 (CK2 alpha 1).

Turning to `CNc1nccc2c(Br)cc3cc(C(=O)O)ccc3c12` [Compound 32, Sodium 5-bromo-1-(methylamino)benzo[h]isoquinoline-8-carboxylate], the IC50 against HIPK2 is 1000 to 5000 nM; on CSNK2A1 (CK2 alpha 1), 300 to 1000 nM.

`Cc1cc2cc(C(=O)O)ccc2c2cnccc12` [Compound 9, Sodium 5-methylbenzo[h]isoquinoline-8-carboxylate]: the results for the IC50 against HIPK2 and at CSNK2A1 (CK2 alpha 1) were 300 to 1000 nM and < 300 nM, respectively.

`N#Cc1cc2cc(C(=O)O)ccc2c2cnccc12` [Compound 27, Sodium 5-cyanobenzo[h]isoquinoline-8-carboxylate]: the figures for the IC50 against HIPK2 and at CSNK2A1 (CK2 alpha 1) were 300 to 1000 nM and < 300 nM, respectively.

In the case of `COc1nccc2c(Br)cc3cc(C(=O)O)ccc3c12` [Compound 34, Sodium 5-bromo-1-methoxybenzo[h]isoquinoline-8-carboxylate], the IC50 lay in the range of 1000 to 5000 nM at HIPK2 and 300 to 1000 nM at CSNK2A1 (CK2 alpha 1).

With `CC[C@@H](C)Nc1cc2cc(C(=O)O)ccc2c2cnccc12` [Compound 22, Sodium (R)-5-(sec-butylamino)benzo[h]isoquinoline-8-carboxylate], the IC50 on HIPK2 (read-out: HIPK2 IC50) and at CSNK2A1 (CK2 alpha 1) was < 300 nM in each case.

As for `O=C(O)c1ccc2c(ccc3ccncc32)c1` [Compound 2, Sodium benzo[h]isoquinoline-8-carboxylate], the IC50 was 1000 to 5000 nM against HIPK2 and < 300 nM on CSNK2A1 (CK2 alpha 1).

On to `O=C(O)c1ccc2c(c1)cc(Br)c1ccnc(Cl)c12` [Compound 23, Sodium 5-bromo-1-chlorobenzo[h]isoquinoline-8-carboxylate], for which the IC50 against HIPK2 is 300 to 1000 nM; on CSNK2A1 (CK2 alpha 1), < 300 nM.

In the case of `O=C(O)c1ccc2c(c1)cc(Nc1cccc(Cl)c1)c1ccncc12` [Compound 4, Sodium 5-((3-chlorophenyl)amino)benzo[h]isoquinoline-8-carboxylate], the concentration for half-maximal inhibition (IC50) at HIPK2 is 300 to 1000 nM; at CSNK2A1 (CK2 alpha 1) it was < 300 nM.

For `O=C(O)c1ccc2c(c1)cc(NC1CCCC1)c1ccncc12` [Compound 15, Sodium 5-(cyclopentylamino)benzo[h]isoquinoline-8-carboxylate], the half-maximal inhibitory concentration (IC50) against HIPK2 was 300 to 1000 nM; on CSNK2A1 (CK2 alpha 1), < 300 nM.

For the molecule `O=C(O)c1ccc2c(c1)cc(NC1CC1)c1ccncc12` [Compound 17, Sodium 5-(cyclopropylamino)benzo[h]isoquinoline-8-carboxylate], the IC50 on HIPK2 (read-out: HIPK2 IC50) and on CSNK2A1 (CK2 alpha 1) was < 300 nM throughout.

Regarding `O=C(O)c1ccc2c(c1)cc(Br)c1ccncc12` [Compound 1, Sodium 5-bromobenzo[h]isoquinoline-8-carboxylate], the IC50 on HIPK2 (read-out: HIPK2 IC50) and on CSNK2A1 (CK2 alpha 1) was < 300 nM each time.

As for `Nc1nccc2cc(Br)c3cc(C(=O)O)ccc3c12` [Compound 35, Sodium 1-amino-6-bromobenzo[h]isoquinoline-8-carboxylate], the IC50 on HIPK2 (read-out: HIPK2 IC50) is < 300 nM; on CSNK2A1 (CK2 alpha 1), 300 to 1000 nM.

One may read the IC50 as the point on the concentration scale where inhibition reaches its midpoint.
